In ChEMBL document CHEMBL3259797, “Radiosyntheses and in vivo evaluation of carbon-11 PET tracers for PDE10A in the brain of rodent and nonhuman primate” (Bioorg Med Chem, 2014):

Key:
Plasma [1] = assay: Metabolic stability in iv dosed cynomolgus monkey plasma assessed as compound remaining measured at 5 to 60 mins by HPLC analysis; type: ADME, organism-based, Macaca fascicularis; conditions: in vivo
Blood [2] = assay: Biodistribution in Sprague-Dawley rat blood at 14.8 to 18.5 MBq, iv treated with MP-10 for 5 mins prior to compound administration measured at 30 mins post-injection by gamma counting analysis; type: ADME, organism-based; conditions: in vivo, 0.5 h
Muscle tissue [3] = assay: Biodistribution in Sprague-Dawley rat muscle at 14.8 to 18.5 MBq, iv measured at 60 mins post-injection by gamma counting analysis; type: ADME, organism-based; conditions: in vivo, 1 h
Blood [4] = assay: Biodistribution in Sprague-Dawley rat blood at 14.8 to 18.5 MBq, iv measured at 5 mins post-injection by gamma counting analysis; type: ADME, organism-based; conditions: in vivo
Rattus norvegicus [5] = assay: Biodistribution in Sprague-Dawley rat fat at 14.8 to 18.5 MBq, iv measured at 5 mins post-injection by gamma counting analysis; type: ADME, organism-based, Adipose tissue; conditions: in vivo
Nucleic Acid [6] = assay: Ratio of drug level in striatum to cerebellum in Sprague-Dawley rat at 14.8 to 18.5 MBq, iv measured at 30 mins post-injection by gamma counting analysis; type: ADME, organism-based; conditions: in vivo, 0.5 h
Striatum [7] = assay: Biodistribution in Sprague-Dawley rat striatum at 14.8 to 18.5 MBq, iv measured at 30 mins post-injection by gamma counting analysis; type: ADME, organism-based; conditions: in vivo, 0.5 h
Nucleic Acid [8] = assay: Ratio of drug level in striatum to cerebellum in Sprague-Dawley rat at 14.8 to 18.5 MBq, iv measured at 60 mins post-injection by gamma counting analysis; type: ADME, organism-based; conditions: in vivo, 1 h
Liver [9] = assay: Biodistribution in Sprague-Dawley rat liver at 14.8 to 18.5 MBq, iv treated with MP-10 for 5 mins prior to compound administration measured at 30 mins post-injection by gamma counting analysis; type: ADME, organism-based; conditions: in vivo, 0.5 h
Kidney [10] = assay: Biodistribution in Sprague-Dawley rat kidney at 14.8 to 18.5 MBq, iv measured at 30 mins post-injection by gamma counting analysis; type: ADME, organism-based; conditions: in vivo, 0.5 h
[11] = Biodistribution in cynomolgus monkey cerebellum at 260 to 370 MBq, iv measured at 20 to 100 mins post-injection by microPET analysis; type: ADME, organism-based, Macaca fascicularis; conditions: in vivo
Blood [12] = assay: Biodistribution in Sprague-Dawley rat blood at 14.8 to 18.5 MBq, iv measured at 60 mins post-injection by gamma counting analysis; type: ADME, organism-based; conditions: in vivo, 1 h
Lung [13] = assay: Biodistribution in Sprague-Dawley rat lung at 14.8 to 18.5 MBq, iv treated with MP-10 for 5 mins prior to compound administration measured at 30 mins post-injection by gamma counting analysis; type: ADME, organism-based; conditions: in vivo, 0.5 h
Striatum [14] = assay: Biodistribution in Sprague-Dawley rat striatum at 14.8 to 18.5 MBq, iv measured at 60 mins post-injection by gamma counting analysis; type: ADME, organism-based; conditions: in vivo, 1 h
Brain [15] = assay: Biodistribution in Sprague-Dawley rat brain at 14.8 to 18.5 MBq, iv measured at 5 mins post-injection by gamma counting analysis; type: ADME, organism-based; conditions: in vivo
Rattus norvegicus [16] = assay: Biodistribution in Sprague-Dawley rat fat at 14.8 to 18.5 MBq, iv measured at 30 mins post-injection by gamma counting analysis; type: ADME, organism-based, Adipose tissue; conditions: in vivo, 0.5 h
Cerebellum [17] = assay: Biodistribution in Sprague-Dawley rat cerebellum at 14.8 to 18.5 MBq, iv treated with MP-10 for 5 mins prior to compound administration measured at 30 mins post-injection by gamma counting analysis; type: ADME, organism-based; conditions: in vivo, 0.5 h
Lung [18] = assay: Biodistribution in Sprague-Dawley rat lung at 14.8 to 18.5 MBq, iv measured at 30 mins post-injection by gamma counting analysis; type: ADME, organism-based; conditions: in vivo, 0.5 h
Brain [19] = assay: Biodistribution in Sprague-Dawley rat brain at 14.8 to 18.5 MBq, iv measured at 60 mins post-injection by gamma counting analysis; type: ADME, organism-based; conditions: in vivo, 1 h
Rattus norvegicus [20] = assay: Biodistribution in Sprague-Dawley rat fat at 14.8 to 18.5 MBq, iv treated with MP-10 for 5 mins prior to compound administration measured at 30 mins post-injection by gamma counting analysis; type: ADME, organism-based, Adipose tissue; conditions: in vivo, 0.5 h
Kidney [21] = assay: Biodistribution in Sprague-Dawley rat kidney at 14.8 to 18.5 MBq, iv measured at 60 mins post-injection by gamma counting analysis; type: ADME, organism-based; conditions: in vivo, 1 h
Lung [22] = assay: Biodistribution in Sprague-Dawley rat lung at 14.8 to 18.5 MBq, iv measured at 60 mins post-injection by gamma counting analysis; type: ADME, organism-based; conditions: in vivo, 1 h
[23] = Metabolic stability in iv dosed cynomolgus monkey RBC assessed as compound remaining measured at 5 to 60 mins by HPLC analysis; type: ADME, organism-based, Macaca fascicularis, Erythrocyte; conditions: in vivo
Brain [24] = assay: Biodistribution in Sprague-Dawley rat brain at 14.8 to 18.5 MBq, iv measured at 30 mins post-injection by gamma counting analysis; type: ADME, organism-based; conditions: in vivo, 0.5 h
Frontal cortex = assay: Biodistribution in cynomolgus monkey frontal cortex at 260 to 370 MBq, iv measured at 20 to 100 mins post-injection by microPET analysis; type: ADME, organism-based, Macaca fascicularis; conditions: in vivo
Liver [25] = assay: Biodistribution in Sprague-Dawley rat liver at 14.8 to 18.5 MBq, iv measured at 60 mins post-injection by gamma counting analysis; type: ADME, organism-based; conditions: in vivo, 1 h
Muscle tissue [26] = assay: Biodistribution in Sprague-Dawley rat muscle at 14.8 to 18.5 MBq, iv treated with MP-10 for 5 mins prior to compound administration measured at 30 mins post-injection by gamma counting analysis; type: ADME, organism-based; conditions: in vivo, 0.5 h
[27] = Drug metabolism in iv dosed cynomolgus monkey plasma assessed as compound remaining measured at 15 mins post-injection by HPLC analysis; type: ADME, organism-based, Macaca fascicularis; conditions: read-out: Stability
[28] = Biodistribution in cynomolgus monkey white matter at 260 to 370 MBq, iv measured at 20 to 100 mins post-injection by microPET analysis; type: ADME, organism-based, Macaca fascicularis; conditions: in vivo
Brain [29] = assay: Biodistribution in Sprague-Dawley rat brain at 14.8 to 18.5 MBq, iv treated with MP-10 for 5 mins prior to compound administration measured at 30 mins post-injection by gamma counting analysis; type: ADME, organism-based; conditions: in vivo, 0.5 h
Cerebellum [30] = assay: Biodistribution in Sprague-Dawley rat cerebellum at 14.8 to 18.5 MBq, iv measured at 5 mins post-injection by gamma counting analysis; type: ADME, organism-based; conditions: in vivo
Plasma [31] = assay: Drug metabolism in iv dosed cynomolgus monkey plasma assessed as retention time by HPLC analysis; type: ADME, organism-based, Macaca fascicularis; conditions: in vivo
Plasma [32] = assay: Metabolic stability in iv dosed cynomolgus monkey plasma supernatant under deproteinated condition assessed as compound remaining measured at 5 to 60 mins by HPLC analysis; type: ADME, organism-based, Macaca fascicularis; conditions: in vivo
[33] = Biodistribution in cynomolgus monkey hippocampus at 260 to 370 MBq, iv measured at 20 to 100 mins post-injection by microPET analysis; type: ADME, organism-based, Macaca fascicularis; conditions: in vivo
[34] = Biodistribution in cynomolgus monkey temporal cortex at 260 to 370 MBq, iv measured at 20 to 100 mins post-injection by microPET analysis; type: ADME, organism-based, Macaca fascicularis; conditions: in vivo
Plasma [35] = assay: Metabolic stability in iv dosed cynomolgus monkey plasma protein pellet under deproteinated condition assessed as compound remaining measured at 5 to 60 mins by HPLC analysis; type: ADME, organism-based, Macaca fascicularis; conditions: in vivo
Muscle tissue [36] = assay: Biodistribution in Sprague-Dawley rat muscle at 14.8 to 18.5 MBq, iv measured at 30 mins post-injection by gamma counting analysis; type: ADME, organism-based; conditions: in vivo, 0.5 h
Cerebellum [37] = assay: Biodistribution in Sprague-Dawley rat cerebellum at 14.8 to 18.5 MBq, iv measured at 60 mins post-injection by gamma counting analysis; type: ADME, organism-based; conditions: in vivo, 1 h
Heart = assay: Biodistribution in Sprague-Dawley rat heart at 14.8 to 18.5 MBq, iv treated with MP-10 for 5 mins prior to compound administration measured at 30 mins post-injection by gamma counting analysis; type: ADME, organism-based; conditions: in vivo, 0.5 h

SMILES: Cn1cc(-c2ccncc2)c(-c2ccc(OCc3nc4ccccc4cc3O[11CH3])cc2)n1
- Stability (Plasma [1]): 65%
- Drug uptake (Blood [2]): 0.407 % ID/g
- Drug uptake (Muscle tissue [3]): 0.142 % ID/g
- Drug uptake (Blood [4]): 0.679 % ID/g
- Drug uptake (Rattus norvegicus [5]): 0.935 % ID/g
- Ratio (Nucleic Acid [6]): 4.6
- Drug uptake (Striatum [7]): 0.452 % ID/g
- Ratio (Nucleic Acid [8]): 6
- Drug uptake (Liver [9]): 5.781 % ID/g
- Drug uptake (Kidney [10]): 1.647 % ID/g
- Drug uptake [11]: Active
- Drug uptake (Blood [12]): 0.275 % ID/g
- Drug uptake (Lung [13]): 0.404 % ID/g
- Drug uptake (Striatum [14]): 0.38 % ID/g
- Drug uptake (Brain [15]): 0.231 % ID/g
- Drug uptake (Rattus norvegicus [16]): 0.851 % ID/g
- Drug uptake (Cerebellum [17]): 0.119 % ID/g
- Drug uptake (Lung [18]): 0.408 % ID/g
- Drug uptake (Brain [19]): 0.095 % ID/g
- Drug uptake (Rattus norvegicus [20]): 1.353 % ID/g
- Drug uptake (Kidney [21]): 1.275 % ID/g
- Drug uptake (Lung [22]): 0.299 % ID/g
- Stability [23]: 25%
- Drug uptake (Brain [24]): 0.133 % ID/g
- Drug uptake (Frontal cortex): Active
- Drug uptake (Liver [25]): 6.398 % ID/g
- Drug uptake (Muscle tissue [26]): 0.257 % ID/g
- remaining at 0.25 h [27]: 87%
- Drug uptake [28]: Active
- Drug uptake (Brain [29]): 0.128 % ID/g
- Drug uptake (Cerebellum [30]): 0.229 % ID/g
- Retention_time (Plasma [31]): 8 min
- Stability (Plasma [32]): 88%
- Drug uptake [33]: Active
- Drug uptake [34]: Active
- Stability (Plasma [35]): 5%
- Drug uptake (Muscle tissue [36]): 0.244 % ID/g
- Drug uptake (Cerebellum [37]): 0.064 % ID/g
- Drug uptake (Heart): 0.34 % ID/g

SMILES: Cn1cc(-c2ccncc2)c(-c2ccc(OCc3cc(O[11CH3])c4ccccc4n3)cc2)n1
- Stability (Plasma [1]): 65%
- Drug uptake (Blood [2]): 0.343 % ID/g
- Drug uptake (Muscle tissue [3]): 0.084 % ID/g
- Drug uptake (Blood [4]): 0.268 % ID/g
- Drug uptake (Rattus norvegicus [5]): 0.242 % ID/g
- Ratio (Nucleic Acid [6]): 3.8
- Drug uptake (Striatum [7]): 0.23 % ID/g
- Ratio (Nucleic Acid [8]): 4.5
- Drug uptake (Liver [9]): 4.723 % ID/g
- Drug uptake (Kidney [10]): 1.294 % ID/g
- Drug uptake [11]: Active
- Drug uptake (Blood [12]): 0.152 % ID/g
- Drug uptake (Lung [13]): 0.362 % ID/g
- Drug uptake (Striatum [14]): 0.201 % ID/g
- Drug uptake (Brain [15]): 0.21 % ID/g
- Drug uptake (Rattus norvegicus [16]): 0.371 % ID/g
- Drug uptake (Cerebellum [17]): 0.112 % ID/g
- Drug uptake (Lung [18]): 0.233 % ID/g
- Drug uptake (Brain [19]): 0.057 % ID/g
- Drug uptake (Rattus norvegicus [20]): 0.697 % ID/g
- Drug uptake (Kidney [21]): 0.758 % ID/g
- Drug uptake (Lung [22]): 0.163 % ID/g
- Stability [23]: 25%
- Drug uptake (Brain [24]): 0.087 % ID/g
- Drug uptake (Frontal cortex): Active
- Drug uptake (Liver [25]): 8.941 % ID/g
- Drug uptake (Muscle tissue [26]): 0.224 % ID/g
- remaining at 0.25 h [27]: 75%
- Drug uptake [28]: Active
- Drug uptake (Brain [29]): 0.114 % ID/g
- Drug uptake (Cerebellum [30]): 0.215 % ID/g
- Retention_time (Plasma [31]): 9 min
- Stability (Plasma [32]): 88%
- Drug uptake [33]: Active
- Drug uptake [34]: Active
- Stability (Plasma [35]): 5%
- Drug uptake (Muscle tissue [36]): 0.133 % ID/g
- Drug uptake (Cerebellum [37]): 0.046 % ID/g
- Drug uptake (Heart): 0.31 % ID/g
